The source of these data is patent US10662259B2, “Glycogen-based water solubility enhancers” (AZIENDE CHIMICHE RIUNITE ANGELINI FRANCESCO A.C.R.A.F. …, priority 2013, dated 2020).

Series [1] can be described thus: Solubility enhancement of astaxanthin in water solutions of the compounds (HPLC). The conditions noted are these: water solution containing 5 mg/mL of compound, excess astaxanthin (1 mg/mL), room temperature, 24 hours, 0.45 μm filter.
Description: The suspension was mixed using a laboratory shaker at room temperature for 24 hours. The concentration (mg/mL) of solubilized astaxanthin was determined by HPLC analysis. The sample was prepared for chromatographic analysis by filtering through a 0.45 μm MCE filter.
An X-Bridge™ Shield RP18 column (4.6×150 mm) was used. A suitable HPLC analytical method was developed for quantitating the amount of astaxanthin in solution.
The absorbance was monitored at 489 nm and the injection volume was 6 μL. In these chromatographic conditions, astaxanthin was eluted in about 4.0 minutes.
An appropriate dilution of each sample was made with dimethylsulfoxide, such that astaxanthin final concentration was within the linear portion of the standard curve, prior to injection onto the HPLC column.
The amount of astaxanthin in mg/mL was calculated by introducing the analyte peak area in the calibration curve fit-equation and multiplying the result by the dilution factor.
For series [2] the following is noted: β-carotene alone; cited from earlier work.
A short description of series [3]: Solubility enhancement of β-carotene in water solutions of the compounds (HPLC). The following applies: 5 mg/mL compound in water, excess β-carotene.
Description: The suspensions were left under stirring for 24 hours. Solutions A to N were obtained.
The suspensions were left under stirring for 24 hours. Solutions O to R were obtained.
An excess amount of β-carotene (5 mg/mL) was added to 1 mL of each solution A to R. The suspension was mixed using a laboratory shaker at room temperature for 24 hours. The concentration (mg/mL) of solubilized β-carotene was determined by HPLC analysis. The sample was prepared for chromatographic analysis by filtering through a 0.45 μm MCE filter.
An X-Bridge™ Shield RP18 column (4.6×150 mm) was used. A suitable HPLC analytical method was developed for quantitating the amount of drug in solution.
An appropriate dilution of each sample was made with dimethylsulfoxide, such that β-carotene final concentration was within the linear portion of the standard curve, prior to injection onto the HPLC column.
The amount of β-carotene in mg/mL was calculated by introducing the analyte peak area in the calibration curve fit-equation and multiplying the result by the dilution factor.

Consider `OC[C@H]1O[C@@H]2O[C@H]3[C@H](O)[C@@H](O)[C@@H](O[C@H]4[C@H](O)[C@@H](O)[C@@H](O[C@H]5[C@H](O)[C@@H](O)[C@@H](O[C@H]6[C@H](O)[C@@H](O)[C@@H](O[C@H]7[C@H](O)[C@@H](O)[C@@H](O[C@H]8[C@H](O)[C@@H](O)[C@@H](O[C@H]9[C@H](O)[C@@H](O)[C@@H](O[C@H]1[C@H](O)[C@H]2O)O[C@@H]9CO)O[C@@H]8CO)O[C@@H]7CO)O[C@@H]6CO)O[C@@H]5CO)O[C@@H]4CO)O[C@@H]3CO` [Compound 14, γ-cyclodextrin (CAVAMAX W8)], for which the “Aqueous solubility of astaxanthin in the presence of the compound” value in series [1] is 1.2 µg/mL.
Same read-out and setting: for `OC[C@H]1O[C@@H]2O[C@H]3[C@H](O)[C@@H](O)[C@@H](O[C@H]4[C@H](O)[C@@H](O)[C@@H](O[C@H]5[C@H](O)[C@@H](O)[C@@H](O[C@H]6[C@H](O)[C@@H](O)[C@@H](O[C@H]7[C@H](O)[C@@H](O)[C@@H](O[C@H]8[C@H](O)[C@@H](O)[C@@H](O[C@H]1[C@H](O)[C@H]2O)O[C@@H]8CO)O[C@@H]7CO)O[C@@H]6CO)O[C@@H]5CO)O[C@@H]4CO)O[C@@H]3CO` [Compound 15, β-cyclodextrin (CAVAMAX W7)] the value was 0.5 µg/mL.
For `CC1=C(/C=C/C(C)=C/C=C/C(C)=C/C=C/C=C(C)/C=C/C=C(C)/C=C/C2=C(C)CCCC2(C)C)C(C)(C)CCC1` [β-carotene], in series [2], the Water solubility result is on record as “below 1 mg/L”.
As for “HP-β-cyclodextrin (CAVASOL W7 HP) [Compound 16]”, in series [3], the “Visual aspect of the solution with β-carotene” value is “pale pink color”. Further, the “Aqueous solubility of astaxanthin in the presence of the compound” value in series [1] was 0.7 µg/mL.
